Test results from ChEMBL document CHEMBL3124876, “A perylene derivative regulates HIF-1α and Stat3 signaling pathways” (Bioorg Med Chem, 2014).
Activity calls are given as the source filed them. No cut-off for these calls is given here.

Key:
[1] = tested on: MDA-MB-231; assay: Antitumor activity against human MDA-MB-231 cells xenografted in Balb nu/nu mouse assessed as reduction in tumor growth at 10 mg/kg, ip administered every other day for 10 days; type: functional, organism-based; design: dose 10 mg/kg
[2] = biological target: Hypoxia-inducible factor 1-alpha (Homo sapiens) (UniProt Q16665); assay: Inhibition of HIF-1 alpha in human PANC1 cells after 3 hrs by Western blotting analysis in hypoxia condition; type: cell-based; settings: PANC-1
Hypoxia-inducible factor 1-alpha (Homo sapiens), sequence (Q16665 whole entry, looked up): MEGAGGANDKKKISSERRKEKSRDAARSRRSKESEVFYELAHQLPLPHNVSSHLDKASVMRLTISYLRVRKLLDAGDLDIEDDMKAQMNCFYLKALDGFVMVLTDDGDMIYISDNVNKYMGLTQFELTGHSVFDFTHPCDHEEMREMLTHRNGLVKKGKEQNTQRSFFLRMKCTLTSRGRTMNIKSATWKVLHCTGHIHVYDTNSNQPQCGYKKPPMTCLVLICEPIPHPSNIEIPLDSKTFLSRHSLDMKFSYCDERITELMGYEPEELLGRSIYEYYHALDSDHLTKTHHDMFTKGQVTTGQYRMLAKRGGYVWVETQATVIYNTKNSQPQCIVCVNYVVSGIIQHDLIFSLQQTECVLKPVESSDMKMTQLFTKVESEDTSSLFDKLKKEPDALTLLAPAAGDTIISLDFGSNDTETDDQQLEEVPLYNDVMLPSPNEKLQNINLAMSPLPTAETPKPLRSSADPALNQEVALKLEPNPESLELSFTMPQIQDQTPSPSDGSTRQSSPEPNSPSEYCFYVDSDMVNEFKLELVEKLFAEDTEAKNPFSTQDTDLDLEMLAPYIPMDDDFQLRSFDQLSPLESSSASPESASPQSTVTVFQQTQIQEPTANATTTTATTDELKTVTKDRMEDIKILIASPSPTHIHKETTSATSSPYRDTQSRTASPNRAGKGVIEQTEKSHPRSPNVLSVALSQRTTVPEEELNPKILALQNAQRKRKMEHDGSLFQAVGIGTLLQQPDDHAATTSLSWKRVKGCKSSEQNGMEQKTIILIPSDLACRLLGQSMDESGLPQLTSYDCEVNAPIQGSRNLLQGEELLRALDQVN

[3] = biological target: Signal transducer and activator of transcription 3 (Homo sapiens) (UniProt P40763); assay: Inhibition of IL6-induced STAT3 phosphorylation in human PANC1 cells after 3 hrs by Western blotting analysis in hypoxia condition; type: cell-based; settings: PANC-1
Signal transducer and activator of transcription 3 (Homo sapiens), sequence (P40763 whole entry): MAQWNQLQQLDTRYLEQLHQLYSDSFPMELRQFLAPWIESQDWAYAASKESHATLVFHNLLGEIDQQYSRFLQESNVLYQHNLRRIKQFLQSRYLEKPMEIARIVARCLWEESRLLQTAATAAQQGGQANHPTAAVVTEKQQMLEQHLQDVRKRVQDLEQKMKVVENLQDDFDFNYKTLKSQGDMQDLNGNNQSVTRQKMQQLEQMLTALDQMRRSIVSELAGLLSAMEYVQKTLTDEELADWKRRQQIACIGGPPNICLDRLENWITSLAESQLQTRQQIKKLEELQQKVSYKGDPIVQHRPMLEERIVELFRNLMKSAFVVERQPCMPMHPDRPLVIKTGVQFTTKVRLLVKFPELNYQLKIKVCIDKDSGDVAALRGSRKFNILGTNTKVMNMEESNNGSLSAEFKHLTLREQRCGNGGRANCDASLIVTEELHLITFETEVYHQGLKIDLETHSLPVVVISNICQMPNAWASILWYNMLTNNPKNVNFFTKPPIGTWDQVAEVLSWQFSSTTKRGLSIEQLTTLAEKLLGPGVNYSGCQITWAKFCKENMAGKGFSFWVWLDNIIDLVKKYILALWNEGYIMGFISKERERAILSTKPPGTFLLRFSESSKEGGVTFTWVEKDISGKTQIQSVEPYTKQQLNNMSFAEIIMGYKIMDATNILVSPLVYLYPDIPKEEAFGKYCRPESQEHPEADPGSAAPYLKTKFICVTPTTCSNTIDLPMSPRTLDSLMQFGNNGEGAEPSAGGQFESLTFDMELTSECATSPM

[4] = biological target: Signal transducer and activator of transcription 3 (Homo sapiens) (UniProt P40763); assay: Inhibition of Stat3 in human MDA-MB-231 cells assessed as inhibition of Stat3 phosphorylation at 10 uM after 18 hrs by Western blotting analysis; type: cell-based
[5] = tested on: MDA-MB-231; assay: Anticancer activity in human MDA-MB-231 cells assessed as reduction of total Stat3 level at 10 uM after 18 hrs by Western blotting analysis; type: functional, cell-based
[6] = biological target: Hypoxia-inducible factor 1-alpha (Homo sapiens) (UniProt Q16665); assay: Inhibition of HIF-1alpha in human MDA-MB-231 cells at 10 uM after 18 hrs by Western blotting analysis in hypoxia condition; type: cell-based
[7] = biological target: Signal transducer and activator of transcription 3 (Homo sapiens) (UniProt P40763); assay: Inhibition of Stat3 phosphorylation in human MDA-MB-231 cells assessed as inhibition of c-Myc expression at 1 to 20 uM by Western blotting analysis; type: cell-based
[8] = tested on: MCF7; assay: Induction of apoptosis in human MCF7 cells up to 20 uM by MTT assay; type: functional, cell-based
[9] = biological target: Hypoxia-inducible factor 1-alpha (Homo sapiens) (UniProt Q16665); assay: Inhibition of HIF-1 alpha in human MDA-MB-231 cells at 1 to 20 uM by Western blotting analysis; type: cell-based
[10] = species on record: Homo sapiens; assay: Inhibition of telomerase (unknown origin)
[11] = biological target: Signal transducer and activator of transcription 3 (Homo sapiens) (UniProt P40763); assay: Inhibition of Stat3 phosphorylation in human MDA-MB-231 cells at 1 to 20 uM by Western blotting analysis; type: cell-based

| inhibition [2] | inhibition [3] | inhibition [4] | inhibition [6] | inhibition [7] | inhibition [9] | inhibition [10] | inhibition [11] | SMILES | Activity [1] | Activity [5] | Activity [8] |
| --- | --- | --- | --- | --- | --- | --- | --- | --- | --- | --- | --- |
| inactive | Active |  |  |  |  |  |  | Nc1ccn([C@@H]2O[C@H](COP(=O)(O)O[C@H]3[C@@H](O)[C@H](n4cnc5c(=O)[nH]c(N)nc54)O[C@@H]3COP(=O)(O)O[C@H]3[C@@H](O)[C@H](n4cnc5c(=O)[nH]c(N)nc54)O[C@@H]3COP(=O)(O)O[C@H]3[C@@H](O)[C@H](n4cnc5c(=O)[nH]c(N)nc54)O[C@@H]3COP(=O)(O)O[C@H]3[C@@H](O)[C@H](n4ccc(N)nc4=O)O[C@@H]3COP(=O)(O)O[C@H]3[C@@H](O)[C@H](n4cnc5c(=O)[nH]c(N)nc54)O[C@@H]3COP(=O)(O)O[C@H]3[C@@H](O)[C@H](n4cnc5c(=O)[nH]c(N)nc54)O[C@@H]3COP(=O)(O)O[C@H]3[C@@H](O)[C@H](n4cnc5c(=O)[nH]c(N)nc54)O[C@@H]3COP(=O)(O)O[C@H]3[C@@H](O)[C@H](n4ccc(N)nc4=O)O[C@@H]3COP(=O)(O)O[C@H]3[C@@H](O)[C@H](n4cnc5c(=O)[nH]c(N)nc54)O[C@@H]3COP(=O)(O)O[C@H]3[C@@H](O)[C@H](n4cnc5c(=O)[nH]c(N)nc54)O[C@@H]3COP(=O)(O)O[C@H]3[C@@H](O)[C@H](n4cnc5c(=O)[nH]c(N)nc54)O[C@@H]3COP(=O)(O)O[C@H]3[C@@H](O)[C@H](n4ccc(N)nc4=O)O[C@@H]3COP(=O)(O)O[C@H]3[C@@H](O)[C@H](n4cnc5c(=O)[nH]c(N)nc54)O[C@@H]3COP(=O)(O)O[C@H]3[C@@H](O)[C@H](n4cnc5c(=O)[nH]c(N)nc54)O[C@@H]3COP(=O)(O)O[C@H]3[C@@H](O)[C@H](n4cnc5c(=O)[nH]c(N)nc54)O[C@@H]3COP(=O)(O)O)[C@@H](O)[C@H]2O)c(=O)n1 | Active |  |  |
|  |  | inactive | inactive |  |  |  |  | NCCCN1C(=O)c2ccc3c4ccc5c6c(ccc(c7ccc(c2c37)C1=O)c64)C(=O)N(CCCN)C5=O |  | inactive |  |
|  |  | inactive | inactive |  |  |  |  | CN(CCCN)CCCN1C(=O)c2ccc3c4ccc5c6c(ccc(c7ccc(c2c37)C1=O)c64)C(=O)N(CCCN(C)CCCCN)C5=O |  | inactive |  |
|  |  | inactive | inactive | inactive | inactive | Active | inactive | NCCN1C(=O)c2ccc3c4ccc5c6c(ccc(c7ccc(c2c37)C1=O)c64)C(=O)N(CCN)C5=O |  | inactive | inactive |
